Measurements as given in patent publication US4820715A, “Anti-emetic quinuclidinyl benzamides” (Bristol-Myers Company, priority 1987, dated 1989).

Legend:
[1] = test system: field-stimulated guinea pig ileum; assay: Gastrokinetic Activity: contraction of field-stimulated guinea pig ileum preparations; parameters: species or system guinea pig (Hartley); details: Cavia porcellus; for EC30: effective concentration30, read-out: EC30 (95% C.L.); for EC50: effective concentration50, read-out: EC50 (95% C.L.); for minimal effective concentration: read-out: Minimum Effective Concentration
Method: This activity is considered to be correlated with gastrokinetic (prokinetic) activity in vivo, i.e. enhancement of gastric motility and gastric emptying.
Normal, male guinea pigs (Hartley; Charles River) weighing […] are sacrificed by cervical dislocation. The terminal portion of the ileum was removed after discarding a 10 cm segment nearest to the ileocecal junction. The strips, 3-4 cm in length, were mounted in a 20 ml organ bath containing Krebs physiological buffer solution. The buffer was bubbled with 95% O2 -5% CO2 and kept at 37° C. The resting tension was adjusted to 1.0 g, and the tissues were equilibrated without stimulation for 15 minutes. For electrical stimulation, a platinum wire (cathode) was threaded up through the lumen and another platinum wire (anode) was attached to the glass rod that suspended the muscle. Tissues were stimulated coaxially at 1.5 times the voltage necessary to produce maximum twitch height, with single pulses, 0.5 msec in duration, delivered once every 10 seconds. After the 15 minute equilibration period (without stimulation), the stimulator (Grass S88 Stimulator) was turned on and the tissues were allowed to stabilize for approximately 1 hour, or until the twitch height remained constant, with washes every 20 minutes.

[2] = target: dopaminergic (D2) receptors (Rattus norvegicus, UniProt P61169); assay: biochemical; type: binding; details: striatal rat brain homogenates, ^3H-spiperone, 37° C., 15 minutes; read-out: 3H-Spiperone Displacement IC50
Method: Rats (150±10 g; Charles River) were decapitated, the corpus striatum dissected out and frozen on dry ice. The tissues were pooled and stored at -80° C. until used. Homogenates (Brinkmann Polytron) of the corpus striatum in cold HEPES.KOH buffer (final pH=7.4) were centrifuged at 39,000×G. The supernatant was discarded and the pellets were re-suspended in HEPES.KOH buffer and re-centrifuged as above.
Tests to determine the Inhibitory Concentration50 (IC50) of the compounds of Formula I and reference compounds versus ^3 H-spiperone were conducted as follows. Tubes containing either 100 μL of buffer mixture (for total binding), 100 μL of buffer mixture plus 100 μL of 10^-4 M D(+)-butaclamol (for blanks, i.e. non-specific binding), or 100 μL of buffer mixture containing 10^-7, 10^-6 or 10^-5 M test compound were prepared. To each were added 100 μL of a solution of ^3 H-spiperone (New England Nuclear) in buffer mixture (2000 c.p.m. in the incubation mixture) and 800 μL of the striatal tissue suspension. The tubes were then diluted to 1 mL with buffer mixture, giving a final concentration of 10^-8, 10^-7 or 10^-6 M test compound and approximately 100 pM ^3 H-spiperone. The samples were incubated at 37° C. for 15 minutes, filtered in vacuo on glass fiber filters and counted by liquid scintillation spectrometry. […] All samples were run in duplicate.

[3] = test system: Apomorphine-Induced Emesis; assay: Antagonism of Apomorphine-Induced Emesis in Dogs; type: in vivo, beagle dogs; details: Canis lupus familiaris, sc; s.c. 30 minutes prior to apomorphine 0.3 mg/kg; dog; read-out: Antagonism of Apomorphine-Induced Emesis in the Dog ED50
Method: Unfasted beagle dogs of both sexes were used as test subjects. Test compounds and apomorphine were each administered subcutaneously as aqueous solutions, with the test compound being administered 30 minutes prior to the administration of the apormorphine.
Apomorphine was administered at a dose of 0.3 mg/kg. […] All tests were run in at least two dogs.

Cisplatin-Induced Emesis = assay: Antagonism of Cisplatin-Induced Emesis in the Ferret; type: in vivo, Fitch ferrets; details: Mustela putorius, iv, 4 h; 3 mg/kg, i.v. × 2; read-out: Antagonism of Cisplatin-Induced Emesis in the Ferret, % Protection
From the text: The ventral and dorsal area of the neck is shaved and a 3 cm incision is made. The left jugular vein is exposed and ligated with a silk suture at the cephalic end. The indwelling catheter is constructed of Silastic tubing 18 cm in length (0.020 inch I.D.×0.037 inch O.D.) with a 2 cm polyethylene sleeve (0.045 inch I.D.×0.062 inch O.D.) filled with heparin (1000 units/ml) and sealed at the exposed end with a 23 gauge×1 inch needle crimped at both ends. A small cut is made in the jugular and the catheter inserted, allowing the free end to be delivered through a 13 gauge×5 cm trochar under the skin and attached to the nape of the neck with a silk suture. The ferrets are housed in individual cages and allowed 2-4 days recovery before testing. On the test day, the test compounds were administered i.v. […] The cisplatin solution was prepared by adding 70° C. physiological saline, stirring and sonicating until dissolved. The resulting solution (4 mg/ml) was maintained at 40° C. and administered i.v. ([…]) via the catheter. Following administration of cisplatin, the ferrets were observed continuously for four hours and emetic episodes recorded. Two or more emetic episodes within a one-minutes period was considered as a single episode. The ferrets were euthanized with T-61 i.v. at the termination of the experiment, and proper placement of the catheter was verified.

[4] = read-out: Average % Maximum Increase

Sequence of dopaminergic (D2) receptors (P61169 whole entry): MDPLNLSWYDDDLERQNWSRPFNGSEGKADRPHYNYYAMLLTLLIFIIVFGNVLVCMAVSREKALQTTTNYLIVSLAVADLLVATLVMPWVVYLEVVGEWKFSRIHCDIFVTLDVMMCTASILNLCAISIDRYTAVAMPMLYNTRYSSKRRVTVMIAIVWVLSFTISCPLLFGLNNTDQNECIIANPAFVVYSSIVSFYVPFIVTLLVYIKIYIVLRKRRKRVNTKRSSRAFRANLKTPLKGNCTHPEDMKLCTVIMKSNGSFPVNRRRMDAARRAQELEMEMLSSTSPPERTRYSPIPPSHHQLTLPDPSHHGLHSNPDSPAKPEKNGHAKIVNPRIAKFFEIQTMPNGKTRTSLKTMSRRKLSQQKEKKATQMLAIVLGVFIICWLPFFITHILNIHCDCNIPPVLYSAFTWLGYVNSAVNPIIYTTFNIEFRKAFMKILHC

SMILES | activation at 100 µM ([1]; at 100 μM, read-out: Average % Maximum Increase) [%] | EC30 [1] [nM] | EC50 [1] [nM] | minimal effective concentration [1] [µM] | IC50 [2] [nM] | ED50 [3] [mg/kg] | inhibition in vivo at 3 mg/kg (Cisplatin-Induced Emesis) [%] | activation at 30 µM [1, 4] [%] | activation at 10 µM [1, 4] [%] | activation at 300 µM ([1]; at 300 μM, read-out: Average % Maximum Increase) [%]
CCN(CC)CCNC(=O)c1cc(Cl)c(N)cc1OCC(N)=O [Example 16, 4-Amino-2-(2-amino-2-oxoethoxy)-5-chloro-N-[2-(diethylamino)ethyl]benzamideAcetate Monohydrate] | 72 | 500 | 3700 | 0.03 | > 1000 | > 3 | 21 | – | – | –
CCN(CC)CCNC(=O)c1cc(Cl)c(N)cc1OCC[S+](C)[O-] (stereo not shown) [Example 21, 4-Amino-5-chloro-N-[2-(diethylamino)ethyl]-2-[2-(methylsulfinyl)ethoxy]benzamide] | – | 570 | 2300 | 0.1 | > 1000 | > 3 | 49 | 88 | – | –
CCN(CC)CCNC(=O)c1cc(Cl)c(N)cc1OCC(=O)NN.O.O.O [Example 36, 4-Amino-5-chloro-N-[2-(diethylamino)ethyl]-2-(2-hydrazino-2-oxoethoxy)benzamide Trihydrate] | – | 500 | 4600 | 0.1 | > 1000 | > 3 | 86 | – | 55 | –
CCN(CC)CCNC(=O)c1cc(Cl)c(N)cc1OCC(=O)NNC(C)=O [Example 37, 4-Amino-5-chloro-N-[2-(diethylamino)ethyl]-2-[2-(2-acetylhydrazino)-2-oxoethoxy]benzamide Acetate] | – | 720 | 6600 | – | > 1000 | > 3 | 57 | – | – | 83
CCN(CC)CCNC(=O)c1cc(Cl)c(N)cc1OCC(=O)NC [Example 40] | – | 900 | 5500 | 0.1 | > 1000 | > 3 | 62 | – | 56 | –
CCN(CC)CCNC(=O)c1cc(Cl)c(N)cc1OCCNC(C)=O [Example 48] | – | 2300 | 13000 | 0.1 | > 1000 | > 3 | 47 | – | 47 | –
CCN(CC)CCNC(=O)c1cc(Cl)c(N)cc1OCCC[S+](C)[O-] (stereo not shown) [Example 50, 4-Amino-5-chloro-N-[2-(diethylamino)ethyl]-2-[3-(methylsulfinyl)propoxy]benzamide] | – | 12000 | 39000 | 1 | > 1000 | > 3 | 62 | 45 | – | –
CCN(CC)CCNC(=O)c1cc(Cl)c(N)cc1OCCCC(=O)N(CC)CC [Example 56, 4-Amino-5-chloro-N-[2-(diethylamino)ethyl]-2-(4-diethylamino-4-oxobutoxy)benzamide] | – | 1100 | 7300 | 0.1 | > 1000 | > 3 | 81 | 59 | – | –
CCN(CC)CCNC(=O)c1cc(Cl)c(N)cc1OCCOC(C)=O [Example 57, 2-(2-Acetoxyethoxy)-4-amino-5-chloro-N-[2-(diethylamino)ethyl]-benzamide] | – | – | – | – | > 1000 | > 3 | 66 | – | – | –
CCN(CC)CCNC(=O)c1cc(Cl)c(N)cc1OCCCC[S+](C)[O-] (stereo not shown) [Example 58] | – | 1500 | 5600 | 0.3 | > 1000 | > 3 | 66 | 72 | – | –
CCN(CC)CCNC(=O)c1cc(Cl)c(N)cc1OCC(=O)N1CCCC1 [Example 59, 4-Amino-5-chloro-N-[2-(diethylamino)ethyl]-2-[2-(1-pyrrolidinyl)-2-oxoethoxy]benzamide] | – | 5200 | 20000 | 1 | > 1000 | > 3 | 66 | – | 38 | –
CCN(CC)CCNC(=O)c1cc(Cl)c(N)cc1OCC[S+]([O-])CC (stereo not shown) [Example 60] | – | 880 | 4800 | 0.1 | > 1000 | > 3 | 52 | 66 | – | –
